This is an account of results in DBAASP.

Assay in all cases: ≥ marks a high value that may be exact or a test limit, other limits are often not marked, values filed in µg/mL are converted to µM
Experiment [1] relates to Escherichia coli.
The subject of experiment [2] is Bacillus cereus.
Experiment [3] deals with Staphylococcus aureus.
Experiment [4] concerns Bacillus subtilis ATCC 23857.
Experiment [5] has as its system Escherichia coli ATCC 25922.
Experiment [6] concerns Staphylococcus aureus ATCC 33591.
Experiment [7] concerns Salmonella typhimurium.
Experiment [8] deals with Bacillus subtilis.
Experiment [9] relates to Candida albicans ATCC 2002.
Experiment [10] relates to Acinetobacter baumannii.
The test system of experiment [11] is Acinetobacter baumannii ATCC 19606.
Experiment [12] relates to Pseudomonas aeruginosa ATCC 27853.
The test system of experiment [13] is Pseudomonas aeruginosa.
Experiment [14] relates to Staphylococcus aureus ATCC 25923.
Experiment [15] deals with Candida albicans ATCC 10231.
The subject of experiment [16] is Enterococcus faecalis ATCC 29212.
The subject of experiment [17] is Staphylococcus aureus ATCC 29213.

Converted amounts (≈) assume the structure as drawn.

Consider `CC(C)C[C@H](NC(=O)[C@@H](N)Cc1ccccc1)C(=O)NCC(=O)N[C@@H](CCCCN)C(=O)N[C@H](C(=O)N[C@@H](Cc1ccccc1)C(=O)N[C@@H](CCCCN)C(=O)NCC(=O)N[C@H](C(=O)N[C@@H](CO)C(=O)N[C@@H](CCCCN)C(=O)N[C@H](C(=O)N[C@@H](Cc1ccccc1)C(=O)N1CCC[C@H]1C(=O)N[C@@H](C)C(=O)N[C@H](C(=O)N[C@@H](Cc1ccccc1)C(=O)NCC(=O)N[C@@H](CCCCN)C(=O)N[C@H](C(=O)O)C(C)C)C(C)C)C(C)C)C(C)C)C(C)C` [FLGKVFKGVSKVFPAVFGKV], for which the MIC (commonly the lowest concentration that inhibits growth of the organism) in experiment [1] is 59.4 µM (≈ 128 µg/mL); in [2] it was at least 59.4 µM; in experiment [3], over 59.4 µM.

Regarding `CC[C@H](C)[C@H](NC(=O)CN)C(=O)N[C@@H](CCCN=C(N)N)C(=O)N[C@@H](CCCN=C(N)N)C(=O)NCC(=O)N[C@H](C(=O)N[C@H](C(=O)N[C@@H](CCCCN)C(=O)N[C@H](C(=O)N[C@H](C(=O)N[C@@H](CCCCN)C(=O)N[C@@H](CCCN=C(N)N)C(N)=O)[C@@H](C)CC)[C@@H](C)CC)[C@@H](C)CC)[C@@H](C)CC` [GIRRGIIKIIKR], the results for the MIC in experiment [4] and in experiment [5] were at least 32 µM and 128 µM (≈ 182 µg/mL), respectively.

Consider `CC(C)C[C@H](NC(=O)[C@@H](N)Cc1ccccc1)C(=O)NCC(=O)N[C@@H](CCCCN)C(=O)N[C@H](C(=O)N[C@@H](Cc1ccccc1)C(=O)N[C@@H](CCCCN)C(=O)N[C@@H](CCCCN)C(=O)N[C@@H](C)C(=O)N[C@@H](CO)C(=O)N[C@@H](CCCCN)C(=O)N[C@H](C(=O)N[C@@H](Cc1ccccc1)C(=O)N1CCC[C@H]1C(=O)N[C@@H](C)C(=O)N[C@H](C(=O)N[C@H](C(=O)NCC(=O)N[C@@H](CCCCN)C(=O)N[C@H](C(=O)O)C(C)C)C(C)C)C(C)C)C(C)C)C(C)C` [FLGKVFKKASKVFPAVVGKV], for which the MIC in experiment [1] is 59.5 µM (≈ 128 µg/mL); in [2], at least 59.5 µM; in experiment [3], over 59.5 µM.

`CC[C@H](C)[C@H](NC(=O)[C@H](CCCCN)NC(=O)[C@@H](NC(=O)[C@@H](NC(=O)[C@H](CCCCN)NC(=O)[C@@H](NC(=O)[C@@H](NC(=O)CNC(=O)[C@H](C)NC(=O)[C@@H](NC(=O)[C@@H](NC(=O)CN)[C@@H](C)CC)[C@@H](C)CC)[C@@H](C)CC)[C@@H](C)CC)[C@@H](C)CC)[C@@H](C)CC)C(N)=O` [GIIAGIIKIIKI]: the MIC in experiment [4] is at least 128 µM; in [5], over 128 µM.

Turning to `CC[C@H](C)[C@H](NC(=O)[C@H](CCC(N)=O)NC(=O)[C@H](CCSC)NC(=O)[C@H](CCC(N)=O)NC(=O)[C@@H](NC(=O)[C@H](CCCCN)NC(=O)[C@H](Cc1ccccc1)NC(=O)[C@H](Cc1c[nH]c2ccccc12)NC(=O)[C@@H](N)CCCN=C(N)N)[C@@H](C)CC)C(=O)N[C@@H](CCCN=C(N)N)C(=O)N[C@@H](CCCN=C(N)N)C(=O)N[C@@H](Cc1c[nH]c2ccccc12)C(=O)N[C@@H](CCCCN)C(=O)N[C@@H](CC(N)=O)C(=O)N[C@@H](CCCCN)C(=O)N[C@@H](CCCCN)C(N)=O` [RWFKIQMQIRRWKNKK], the MIC in experiment [5] was 32 µM (≈ 71.9 µg/mL); in experiment [6], at least 64 µM.

Consider `CC(C)[C@H](NC(=O)CNC(=O)[C@H](CCCN=C(N)N)NC(=O)[C@@H](NC(=O)[C@H](Cc1c[nH]c2ccccc12)NC(=O)[C@@H](NC(=O)[C@H](CCCN=C(N)N)NC(=O)CNC(=O)[C@H](Cc1c[nH]c2ccccc12)NC(=O)[C@H](CCCN=C(N)N)NC(=O)[C@@H](NC(=O)[C@@H](NC(=O)[C@@H](NC(=O)CN)C(C)C)C(C)C)C(C)C)C(C)C)C(C)C)C(=O)N[C@@H](CCCN=C(N)N)C(=O)N[C@@H](CCCN=C(N)N)C(N)=O` [GVVVRWGRVWVRGVRR], for which the MIC turned out to be 2 µM (≈ 3.87 µg/mL) in [7], 4 µM (≈ 7.75 µg/mL) in [1], 4 µM (≈ 7.75 µg/mL) in experiment [3] and 2 µM (≈ 3.87 µg/mL) in experiment [8].

In turn, `CC[C@H](C)[C@H](NC(=O)[C@@H](NC(=O)[C@@H](NC(=O)[C@@H]1CCCN1C(=O)[C@H](Cc1c[nH]c2ccccc12)NC(=O)[C@H](Cc1ccccc1)NC(=O)[C@H](CCCN=C(N)N)NC(=O)[C@H](CCCCN)NC(=O)[C@@H](NC(=O)[C@@H](N)CCCN=C(N)N)[C@@H](C)CC)C(C)C)C(C)C)C(=O)N[C@@H](CCCN=C(N)N)C(=O)N[C@H](C(=O)N[C@H](C(=O)N[C@H](C(=O)O)C(C)C)C(C)C)[C@@H](C)O` [RIKRFWPVVIRTVV] gave an MIC in [9] of at least 84.8 µM.

Regarding `CC(C)C[C@H](NC(=O)[C@H](Cc1ccc(O)cc1)NC(=O)[C@H](CCCCN)NC(=O)[C@H](Cc1ccccc1)NC(=O)[C@H](CC(C)C)NC(=O)[C@H](CCCN=C(N)N)NC(=O)[C@H](CCCCN)NC(=O)[C@H](Cc1ccccc1)NC(=O)[C@H](CC(C)C)NC(=O)[C@H](CCCN=C(N)N)NC(=O)[C@@H](N)CCCCN)C(=O)N[C@@H](CCCN=C(N)N)C(=O)N[C@@H](CCCN=C(N)N)C(=O)N[C@@H](Cc1ccccc1)C(=O)O` [KRLFKRLFKYLRRF], the MIC in experiment [10] was determined as 1.01 µM (≈ 2 µg/mL); in experiment [11], 1.01 µM (≈ 2 µg/mL); in [12] it was 0.507 µM (≈ 1 µg/mL); in experiment [13], 2.03 µM (≈ 4 µg/mL); in experiment [14], 0.507 µM (≈ 1 µg/mL); in experiment [5], 1.01 µM (≈ 2 µg/mL). In experiment [15], this molecule had an MIC of 2.03 µM (≈ 4 µg/mL).

For `CC[C@H](C)[C@H](NC(=O)[C@H](Cc1cnc[nH]1)NC(=O)[C@H](CCCN=C(N)N)NC(=O)[C@H](CC(C)C)NC(=O)[C@H](CC(N)=O)NC(=O)[C@@H](N)CC(N)=O)C(=O)N[C@H](C(=O)N[C@@H](C)C(=O)N[C@@H](Cc1c[nH]c2ccccc12)C(=O)N[C@H]1CSSC[C@@H](C(=O)N[C@@H](C)C(=O)N[C@@H](CCCN=C(N)N)C(=O)N[C@@H](Cc2ccccc2)C(=O)N[C@@H](CCCCN)C(=O)N2CCC[C@H]2C(=O)N[C@@H](CCC(N)=O)C(=O)O)NC(=O)[C@H](C(C)C)NC(=O)[C@H](C)NC(=O)[C@H](CC(C)C)NC(=O)[C@H](CO)NC(=O)[C@H](Cc2ccc(O)cc2)NC(=O)[C@H](CC(N)=O)NC(=O)[C@H](CCCN=C(N)N)NC(=O)[C@H](CC(N)=O)NC(=O)[C@H](CCCCN)NC1=O)C(C)C` [NNLRHIVAWCKNRNYSLAVCARFKPQ], the MIC in [16], in experiment [11], in [17] and in [5] was over 64 µM throughout.

As to `CC[C@H](C)[C@H](NC(=O)[C@H](CC(C)C)NC(=O)[C@H](CO)NC(=O)[C@@H]1CCCN1C(=O)[C@@H](NC(=O)[C@@H](NC(=O)[C@H](CCCCN)NC(=O)[C@H](CO)NC(=O)[C@H](C)NC(=O)[C@@H](NC(=O)[C@H](CCCN=C(N)N)NC(=O)CNC(=O)[C@@H](NC(=O)[C@@H](N)C(C)C)C(C)C)C(C)C)C(C)C)C(C)C)C(=O)NCC(=O)N[C@@H](CC(C)C)C(=O)N[C@@H](Cc1ccccc1)C(=O)N[C@H](C(=O)N[C@H](C(=O)N[C@@H](CCCCN)C(=O)O)[C@@H](C)O)[C@@H](C)O` [VVGRVASKVVPSLIGLFTTK], the MIC in experiment [1] is over 124 µM; in experiment [2], at least 124 µM.

`CC[C@H](C)[C@H](NC(=O)[C@H](CC(C)C)NC(=O)[C@H](CO)NC(=O)[C@@H]1CCCN1C(=O)[C@@H](NC(=O)[C@@H](NC(=O)[C@H](CCCCN)NC(=O)[C@H](CO)NC(=O)[C@H](C)NC(=O)[C@@H](NC(=O)[C@H](CO)NC(=O)[C@H](Cc1ccccc1)NC(=O)[C@@H](NC(=O)[C@@H](NC(=O)[C@@H]1CCCN1)C(C)C)C(C)C)C(C)C)C(C)C)C(C)C)C(=O)N[C@@H](CO)C(=O)N[C@@H](C)C(=O)N[C@@H](CC(C)C)C(=O)N[C@@H](CCCCN)C(=O)N[C@@H](CCCN=C(N)N)C(=O)O` [PVVFSVASKVVPSLISALKR]: the minimum inhibitory concentration (MIC) in experiment [1] is over 122 µM; in [2], at least 122 µM.

With `CC(C)C[C@H](NC(=O)[C@H](CC(C)C)NC(=O)[C@H](CCCCN)NC(=O)[C@H](CCCCN)NC(=O)[C@H](CC(C)C)NC(=O)[C@H](Cc1cnc[nH]1)NC(=O)[C@H](CCCCN)NC(=O)[C@H](CC(C)C)NC(=O)[C@@H](N)Cc1ccccc1)C(N)=O` [FLKHLKKLL], the MIC in experiment [11] was found to be 112 µM (≈ 128 µg/mL); in [12] it was 7.02 µM (≈ 7.99 µg/mL); in experiment [14] it was 112 µM (≈ 128 µg/mL); in experiment [5], 56.2 µM (≈ 63.9 µg/mL).

In the case of `CC(C)C[C@H](NC(=O)[C@H](CCCCN)NC(=O)[C@@H](NC(=O)[C@@H](NC(=O)[C@@H](NC(=O)CNC(=O)[C@H](CC(C)C)NC(=O)[C@@H](N)Cc1ccccc1)C(C)C)C(C)C)C(C)C)C(=O)N[C@@H](C)C(=O)N[C@@H](CO)C(=O)N[C@@H](CCCCN)C(=O)N[C@H](C(=O)N[C@@H](Cc1ccccc1)C(=O)N1CCC[C@H]1C(=O)N[C@@H](C)C(=O)N[C@H](C(=O)N[C@@H](Cc1ccccc1)C(=O)NCC(=O)N[C@@H](CCCCN)C(=O)N[C@H](C(=O)O)C(C)C)C(C)C)C(C)C` [FLGVVVKLASKVFPAVFGKV], the MIC is over 122 µM in [1], 15.2 µM (≈ 32 µg/mL) in [2] and 7.6 µM (≈ 16 µg/mL) in [3].
